Measured values as given in ChEMBL document CHEMBL5346903, “Discovery of novel and bioavailable histone deacetylases and cyclin-dependent kinases dual inhibitor to impair the stemness of leukemia cells” (Eur J Med Chem, 2023).
Each block holds one compound with its values, some of them ahead of it.

Legend:
[1] = biological target: Histone deacetylase (Homo sapiens) (UniProt Q13547+O15379+Q9UBN7+Q92769+Q9UQL6+Q8WUI4+Q9BY41+Q96DB2+P56524+Q9UKV0+Q969S8); assay: Inhibition of HDAC in human nuclear extract using Ac-Arg-Gly-Lys(Ac)-AMC as substrate at 1 uM incubated overnight by fluorescence based assay relative to control; assay type: subcellular; settings: HeLa, Nucleus
Histone deacetylase 3 = Histone deacetylase 3 (Homo sapiens, UniProt O15379); assay: Inhibition of HDAC3 in human nuclear extract using Ac-Arg-Gly-Lys(Ac)-AMC as substrate at 1 uM incubated overnight by fluorescence based assay relative to control; assay type: subcellular; settings: HeLa, Nucleus
[2] = Antiproliferative activity against HEK293T cells incubated for 72 hrs by CCK8 assay; assay type: toxicity, cell-based, HEK-293T; settings: human
Histone deacetylase 8 = Histone deacetylase 8 (Homo sapiens, UniProt Q9BY41); assay: Inhibition of recombinant human HDAC8 using HDAC substrate incubated for 30 mins by fluorescence based assay
[3] = biological target: Cyclin-dependent kinase 1/cyclin B1 (Homo sapiens) (UniProt P06493+P14635); assay: Inhibition of CDK1/cyclinB1 (unknown origin) at 100 nM preincubated for 20 mins followed by [gamma-33P]ATP addition measured after 120 mins in presence of ATP by Hot-SpotSM kinase assay relative to control; assay type: protein-complex assay; settings: time 140.0 min
[4] = biological target: CDK1/Cyclin E (Homo sapiens) (UniProt P06493+P24864); assay: Inhibition of CDK1/cyclinE1 (unknown origin) at 100 nM preincubated for 20 mins followed by [gamma-33P]ATP addition measured after 120 mins in presence of ATP by Hot-SpotSM kinase assay relative to control; assay type: protein-complex assay; settings: time 140.0 min
[5] = biological target: Cyclin-dependent kinase 4/cyclin D1 (Homo sapiens) (UniProt P11802+P24385); assay: Inhibition of CDK4/cyclinD1 (unknown origin) at 100 nM preincubated for 20 mins followed by [gamma-33P]ATP addition measured after 120 mins in presence of ATP by Hot-SpotSM kinase assay relative to control; assay type: protein-complex assay; settings: time 140.0 min
[6] = biological target: Cyclin-C/Cyclin-dependent kinase 19 (Homo sapiens) (UniProt Q9BWU1+P24863); assay: Inhibition of CDK19/cyclinC (unknown origin) at 100 nM preincubated for 20 mins followed by [gamma-33P]ATP addition measured after 120 mins in presence of ATP by Hot-SpotSM kinase assay relative to control; assay type: protein-complex assay; settings: time 140.0 min
HL-60 [7] = assay: Upregulation of Ac-Histone 3 level in human HL-60 cells incubated for 6 hrs by Western blot analysis; assay type: functional, cell-based; settings: dose <= 1000.0 nM
HL-60 [8] = assay: Induction of apoptosis in human HL-60 cells assessed as necrotic cells at 0.5 uM incubated for 48 hrs by annexin V-FITC/PI satining based flow cytometry (reference value: 0.00 %); assay type: functional
U-937 [9] = assay: Induction of apoptosis in human U-937 cells assessed as viable cells at 0.5 uM incubated for 48 hrs by annexin V-FITC/PI satining based flow cytometry (reference value: 90.0 %); assay type: functional; settings: read-out: Activity
U-937 [10] = assay: Induction of apoptosis in human U-937 cells assessed as early apoptotic cells at 0.5 uM incubated for 48 hrs by annexin V-FITC/PI satining based flow cytometry (reference value: 0.945 %); assay type: functional
U-937 [11] = assay: Induction of apoptosis in human U-937 cells assessed as early apoptotic cells at 2 uM incubated for 48 hrs by annexin V-FITC/PI satining based flow cytometry (reference value: 0.945 %); assay type: functional
U-937 [12] = assay: Induction of apoptosis in human U-937 cells assessed as necrotic cells at 1 uM incubated for 48 hrs by annexin V-FITC/PI satining based flow cytometry (reference value: 1.96 %); assay type: functional
HL-60 [13] = assay: Induction of differentiation in human HL-60 cells assessed as increase in CD11b positive cells at 0.5 uM incubated for 24 hrs by FITC staining based flow cytometry (reference value: 1.45 %); assay type: functional
HL-60 [14] = assay: Induction of differentiation in human HL-60 cells assessed as increase in CD11b positive cells at 1.5 uM incubated for 24 hrs by FITC staining based flow cytometry (reference value: 1.45 %); assay type: functional
U-937 [15] = assay: Induction of differentiation in human U-937 cells assessed as increase in CD11b positive cells at 0.5 uM incubated for 48 hrs by FITC staining based flow cytometry (reference value: 2.72 %); assay type: functional
U-937 [16] = assay: Induction of differentiation in human U-937 cells assessed as increase in CD11b positive cells at 1.5 uM incubated for 48 hrs by FITC staining based flow cytometry (reference value: 2.72 %); assay type: functional
[17] = Cmax in Sprague-Dawley rat at 5 mg/kg, iv measured upto 6 hrs by LC/MS-MS analysis; assay type: ADME, organism-based; parameters: time < 6 hrs, dose 5 mg/kg, route iv; settings: in vivo
[18] = Half life in Sprague-Dawley rat at 5 mg/kg, iv measured upto 6 hrs by LC/MS-MS analysis; assay type: ADME, organism-based; settings: in vivo
[19] = Half life in Sprague-Dawley rat at 25 mg/kg, po measured upto 8 hrs by LC/MS-MS analysis; assay type: ADME, organism-based; settings: in vivo
[20] = Clearance in Sprague-Dawley rat at 25 mg/kg, po measured upto 8 hrs by LC/MS-MS analysis; assay type: ADME, organism-based; settings: in vivo
[21] = Bioavailability in Sprague-Dawley rat at 25 mg/kg, po measured upto 8 hrs by LC/MS-MS analysis; assay type: ADME, organism-based; settings: in vivo
[22] = biological target: CDK2/Cyclin A2 (Homo sapiens) (UniProt P24941+P20248); settings: dose 100.0 nM, time 140.0 min
[23] = biological target: Cyclin-Y/Cyclin-dependent kinase 16 (Homo sapiens) (UniProt Q00536+Q8ND76); settings: dose 100.0 nM, time 140.0 min
HL-60 [24] = assay: Induction of apoptosis in human HL-60 cells assessed as viable cells at 0.6 uM incubated for 48 hrs by annexin V-FITC/PI satining based flow cytometry (reference value: 94.7 %); assay type: functional; settings: read-out: Activity
HL-60 [25] = assay: Induction of apoptosis in human HL-60 cells assessed as late apoptotic cells at 2.5 uM incubated for 48 hrs by annexin V-FITC/PI satining based flow cytometry (reference value: 2.83 %); assay type: functional
U-937 [26] = assay: Induction of apoptosis in human U-937 cells assessed as early apoptotic cells at 2.5 uM incubated for 48 hrs by annexin V-FITC/PI satining based flow cytometry (reference value: 1.93 %); assay type: functional
U-937 [27] = assay: Induction of apoptosis in human U-937 cells assessed as late apoptotic cells at 2.5 uM incubated for 48 hrs by annexin V-FITC/PI satining based flow cytometry (reference value: 4.23 %); assay type: functional
U-937 [28] = assay: Induction of apoptosis in human U-937 cells assessed as necrotic cells at 0.6 uM incubated for 48 hrs by annexin V-FITC/PI satining based flow cytometry (reference value: 0.102 %); assay type: functional
HL-60 [29] = assay: Induction of differentiation in human HL-60 cells assessed as increase in CD11b positive cells at 5 uM incubated for 24 hrs by FITC staining based flow cytometry (reference value: 1.12 %); assay type: functional
Kasumi 1 = assay: Cytotoxicity against human Kasumi 1 cells assessed as CD34positive CD38negative leukemic stem cell-like cells sub-population at 0.5 uM incubated for 24 hrs by APC/FITC satining based flow cytometry (reference value: 95.8 %); assay type: functional

Sequence of Histone deacetylase 8 (Q9BY41 whole entry): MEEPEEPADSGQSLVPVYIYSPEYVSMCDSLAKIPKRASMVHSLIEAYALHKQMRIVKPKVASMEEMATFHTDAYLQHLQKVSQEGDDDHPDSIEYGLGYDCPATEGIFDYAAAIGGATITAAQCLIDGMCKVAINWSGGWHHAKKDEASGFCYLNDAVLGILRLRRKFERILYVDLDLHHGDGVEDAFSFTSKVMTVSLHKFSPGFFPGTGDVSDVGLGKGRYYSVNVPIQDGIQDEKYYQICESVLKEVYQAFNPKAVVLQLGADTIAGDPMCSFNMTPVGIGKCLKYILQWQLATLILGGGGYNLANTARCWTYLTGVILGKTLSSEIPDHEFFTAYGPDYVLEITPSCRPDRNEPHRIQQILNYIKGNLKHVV
Sequence of CDK1/Cyclin E (Homo sapiens) (P06493 whole entry, looked up): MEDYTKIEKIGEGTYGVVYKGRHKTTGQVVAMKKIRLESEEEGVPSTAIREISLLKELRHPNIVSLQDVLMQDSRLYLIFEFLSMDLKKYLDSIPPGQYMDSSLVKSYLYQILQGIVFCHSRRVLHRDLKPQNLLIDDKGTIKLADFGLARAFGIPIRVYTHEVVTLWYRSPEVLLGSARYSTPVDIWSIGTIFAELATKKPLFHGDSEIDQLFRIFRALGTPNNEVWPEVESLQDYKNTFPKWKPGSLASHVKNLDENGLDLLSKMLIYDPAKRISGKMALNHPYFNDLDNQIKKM
Sequence of CDK1/Cyclin E (Homo sapiens) (P24864 whole entry, looked up): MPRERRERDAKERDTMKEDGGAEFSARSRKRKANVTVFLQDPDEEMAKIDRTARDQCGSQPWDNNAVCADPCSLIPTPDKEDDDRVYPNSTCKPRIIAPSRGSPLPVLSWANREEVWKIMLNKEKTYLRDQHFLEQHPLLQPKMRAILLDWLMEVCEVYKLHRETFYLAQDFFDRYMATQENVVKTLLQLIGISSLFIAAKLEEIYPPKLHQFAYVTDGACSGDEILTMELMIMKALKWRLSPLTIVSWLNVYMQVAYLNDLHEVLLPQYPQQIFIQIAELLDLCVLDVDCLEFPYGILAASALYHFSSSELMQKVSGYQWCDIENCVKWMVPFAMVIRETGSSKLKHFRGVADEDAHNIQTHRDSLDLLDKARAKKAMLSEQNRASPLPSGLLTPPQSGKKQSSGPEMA
Sequence of Cyclin-dependent kinase 1/cyclin B1 (Homo sapiens) (P06493 whole entry, looked up): as the sequence (P06493 whole entry, looked up) above
Sequence of Cyclin-dependent kinase 1/cyclin B1 (Homo sapiens) (P14635 whole entry, looked up): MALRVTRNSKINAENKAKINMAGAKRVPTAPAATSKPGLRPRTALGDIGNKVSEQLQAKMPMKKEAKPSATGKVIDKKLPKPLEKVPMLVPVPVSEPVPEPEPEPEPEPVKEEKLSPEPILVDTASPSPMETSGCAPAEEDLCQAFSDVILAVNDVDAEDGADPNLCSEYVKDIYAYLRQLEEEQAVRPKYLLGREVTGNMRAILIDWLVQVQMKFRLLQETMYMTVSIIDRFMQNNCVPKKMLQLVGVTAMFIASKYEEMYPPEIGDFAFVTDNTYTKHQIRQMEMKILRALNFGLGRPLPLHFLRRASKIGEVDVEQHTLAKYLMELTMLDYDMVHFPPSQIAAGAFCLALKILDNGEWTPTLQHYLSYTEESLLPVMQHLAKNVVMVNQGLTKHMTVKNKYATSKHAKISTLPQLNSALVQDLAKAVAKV
Sequence of Histone deacetylase 3 (O15379 whole entry): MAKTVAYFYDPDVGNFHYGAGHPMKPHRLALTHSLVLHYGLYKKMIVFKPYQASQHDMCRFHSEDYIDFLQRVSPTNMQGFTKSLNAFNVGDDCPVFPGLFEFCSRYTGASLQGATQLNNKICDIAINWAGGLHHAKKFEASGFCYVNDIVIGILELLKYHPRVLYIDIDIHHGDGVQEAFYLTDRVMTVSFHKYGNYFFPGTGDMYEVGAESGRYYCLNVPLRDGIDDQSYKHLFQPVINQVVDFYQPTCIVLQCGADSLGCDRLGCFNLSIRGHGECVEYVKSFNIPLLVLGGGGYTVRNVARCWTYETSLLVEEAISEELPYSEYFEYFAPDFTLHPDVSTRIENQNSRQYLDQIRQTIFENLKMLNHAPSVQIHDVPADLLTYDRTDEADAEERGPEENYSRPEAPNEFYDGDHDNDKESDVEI

- inhibition [1]: 100%
- inhibition (Histone deacetylase 3): 100%
- IC50 (Histone deacetylase 8): 1.01 µM
- inhibition [3]: 43.8%
- inhibition [4]: 27.6%
- inhibition [5]: 53.7%
- inhibition [6]: 23.1%
- Cmax [17]: 3640 ng/mL
- t1/2 [18]: 6.6 min
- t1/2 [19]: 82.2 min
- CL/F [20]: 28.8 mL/min/kg
- bioavailability [21]: 56.7%
- inhibition [22]: 69.1%
- inhibition [23]: 35.4%
SMILES: Nc1ccccc1NC(=O)c1ccc(NC(=O)c2n[nH]cc2NC(=O)c2c(Cl)cccc2Cl)cc1
- IC50 at 72 h [2]: > 20 µM
- Activity (HL-60 [7]): Dose-Dependent Effect
- Activity (HL-60 [8]): 0.01%
- viability at 0.5 µM (U-937 [9]): 79.8%
- Activity (U-937 [10]): 1.99%
- Activity (U-937 [11]): 2.14%
- Activity (U-937 [12]): 15.1%
- Activity (HL-60 [13]): 6.09%
- Activity (HL-60 [14]): 50.9%
- Activity (U-937 [15]): 3.96%
- Activity (U-937 [16]): 16%

SMILES: Nc1cc(F)ccc1NC(=O)c1ccc(CNC(=O)/C=C/c2cccnc2)cc1 [TUCIDINOSTAT]
- viability at 0.6 µM (HL-60 [24]): 95.1%
- Activity (HL-60 [25]): 37.9%
- Activity (U-937 [26]): 2.67%
- Activity (U-937 [27]): 9.77%
- Activity (U-937 [28]): 0.072%
- Activity (HL-60 [29]): 71.1%
- Activity (Kasumi 1): 93.9%
